The results in this text go back to ChEMBL document CHEMBL4219234, “4-Substituted carbamazepine derivatives: Conformational analysis and sodium channel-blocking properties” (Bioorg Med Chem, 2018).

Calls of active or inactive are those of the source. No cut-off for these calls is given here.

The target of data set [1] is Sodium channel protein type 2 subunit alpha (Homo sapiens) (UniProt Q99250). Nature of the data set: Inhibition of human Nav1.2 expressed in CHOK1 cells assessed as reduction in peak inward current at 30th pulse using holding potential of -50 mV by patch clamp assay. The class given is cell-based. In general terms: Patch clamp records ionic current or voltage across a cell membrane.

Data set [2] is described as follows: Solubility of the compound in DMSO at > 14.3 uM. Format: physicochemical.
Data set [3] in a line: Solubility of the compound in DMSO at > 30 uM. Format: physicochemical.

Chain of Sodium channel protein type 2 subunit alpha (Homo sapiens) (Q99250 whole entry, looked up): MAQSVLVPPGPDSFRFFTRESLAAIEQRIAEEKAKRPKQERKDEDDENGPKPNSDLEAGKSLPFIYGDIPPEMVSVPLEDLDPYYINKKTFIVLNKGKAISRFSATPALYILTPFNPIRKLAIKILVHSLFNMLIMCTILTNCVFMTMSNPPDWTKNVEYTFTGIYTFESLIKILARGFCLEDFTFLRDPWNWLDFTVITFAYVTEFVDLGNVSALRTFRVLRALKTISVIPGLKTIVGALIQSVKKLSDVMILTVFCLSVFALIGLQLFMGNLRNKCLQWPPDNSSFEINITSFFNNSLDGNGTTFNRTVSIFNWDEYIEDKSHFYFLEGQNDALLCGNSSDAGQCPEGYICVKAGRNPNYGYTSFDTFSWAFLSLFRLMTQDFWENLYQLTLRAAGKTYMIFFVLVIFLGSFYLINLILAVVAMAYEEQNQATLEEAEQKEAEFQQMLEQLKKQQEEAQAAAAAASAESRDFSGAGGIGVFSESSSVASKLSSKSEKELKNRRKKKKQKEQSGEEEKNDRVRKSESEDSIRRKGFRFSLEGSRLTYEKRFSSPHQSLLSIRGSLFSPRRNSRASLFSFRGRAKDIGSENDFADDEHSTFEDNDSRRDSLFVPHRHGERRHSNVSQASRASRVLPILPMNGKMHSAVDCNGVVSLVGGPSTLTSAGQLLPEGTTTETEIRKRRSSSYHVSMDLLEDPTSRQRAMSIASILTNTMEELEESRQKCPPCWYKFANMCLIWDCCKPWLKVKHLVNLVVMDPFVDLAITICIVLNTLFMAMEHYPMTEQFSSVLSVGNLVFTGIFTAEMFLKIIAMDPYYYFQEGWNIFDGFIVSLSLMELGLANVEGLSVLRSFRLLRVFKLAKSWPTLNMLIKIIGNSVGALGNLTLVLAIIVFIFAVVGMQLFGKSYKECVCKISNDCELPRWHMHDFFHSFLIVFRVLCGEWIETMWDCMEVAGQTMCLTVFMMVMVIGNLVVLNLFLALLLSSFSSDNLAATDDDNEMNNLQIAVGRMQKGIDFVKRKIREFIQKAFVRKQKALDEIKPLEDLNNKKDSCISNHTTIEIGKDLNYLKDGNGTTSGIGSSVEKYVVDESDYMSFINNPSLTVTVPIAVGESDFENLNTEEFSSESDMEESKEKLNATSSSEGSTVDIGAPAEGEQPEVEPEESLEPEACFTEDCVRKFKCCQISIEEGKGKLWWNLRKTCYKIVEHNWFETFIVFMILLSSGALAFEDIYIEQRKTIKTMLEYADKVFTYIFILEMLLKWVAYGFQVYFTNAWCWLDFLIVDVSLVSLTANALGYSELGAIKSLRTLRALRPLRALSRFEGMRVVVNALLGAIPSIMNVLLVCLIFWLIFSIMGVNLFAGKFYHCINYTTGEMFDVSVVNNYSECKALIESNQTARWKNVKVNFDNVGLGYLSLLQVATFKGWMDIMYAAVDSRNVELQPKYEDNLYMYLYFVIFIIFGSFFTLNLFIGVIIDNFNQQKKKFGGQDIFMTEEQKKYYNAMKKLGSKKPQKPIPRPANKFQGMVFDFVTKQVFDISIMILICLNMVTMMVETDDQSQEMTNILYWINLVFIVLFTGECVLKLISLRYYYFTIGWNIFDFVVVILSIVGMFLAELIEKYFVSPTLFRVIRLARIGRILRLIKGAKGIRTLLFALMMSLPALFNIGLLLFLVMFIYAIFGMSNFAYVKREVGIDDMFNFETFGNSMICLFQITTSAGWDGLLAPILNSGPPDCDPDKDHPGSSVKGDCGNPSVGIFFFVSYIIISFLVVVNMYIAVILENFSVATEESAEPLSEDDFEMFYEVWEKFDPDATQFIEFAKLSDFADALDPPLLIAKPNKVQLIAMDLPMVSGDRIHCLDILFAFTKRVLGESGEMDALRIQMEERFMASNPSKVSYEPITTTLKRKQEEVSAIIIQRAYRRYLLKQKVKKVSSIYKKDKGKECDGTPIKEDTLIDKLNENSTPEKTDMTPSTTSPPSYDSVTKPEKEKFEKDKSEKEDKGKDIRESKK

As to `NC(=O)N1c2ccccc2C=Cc2cccc(Cl)c21`, the inhibition result in data set [1] is “Active”. Also, the solubility entry in data set [2] is recorded as “Insoluble”. As for `Cc1cccc2c1N(C(N)=O)c1ccccc1C=C2`, the inhibition result in data set [1] is “Active”. Further, the solubility entry in data set [3] is listed as “Insoluble”. Consider `NC(=O)N1c2ccccc2C=Cc2ccccc21`, for which the inhibition entry in data set [1] is “Active”.
